The source of these data is patent US20100056525A1, “5- AND 6- SUBSTITUTED BENZIMIDAZOLE THIOPHENE COMPOUNDS” (priority 2006, published 2010).

Assay [1] concerns HCT-116 (human colon) cells. Nature of the assay: Cell-Titer Glo Cell Growth Inhibition Assay. The class given is cell-based. The note with it: HCT-116 cells, 72 h incubation, CellTiter-Glo, read-out: HCT116 IC50. Here is the method: A549-L (human lung), Colo 205 (human colon), HCT-116 (human colon), HT29 (human colon), MX-1 (human breast), SKOV3 (human ovary) and P388 (murine leukemia) cell lines were cultured in RPM11640 containing 10% fetal bovine serum at 37° C. in a 5% CO2 incubator. Cell lines were split into T75 flasks (Falcon #353136) two to three days prior to assay set up at density which yields approximately 70-80% confluency at time of harvest for assay. Cells were harvested using 0.25% trypsin with EDTA (Glibco/Invitrogen #25200-056), Cell counts were performed on cell suspensions using Trypan Blue exclusion staining, cells were then plated in 105 µL of culture media per well at the following densities in 96 well Costar #3916 black flat bottom plates: A549-L 500 cells/well, Colo205 500 cells/well, HCT-116 500 cells/well, HT29 500 cells/well, MX-1 500 cells/well, SKOV3 500 cells/well and P388 250 cells/well. All plates were placed at 5% CO2 37° C. overnight and then test compounds were added the following day. One plate of each cell type was treated with CellTiter-Glo (Promega #G7573) for a day 0 proliferation measurement and read as described below. The test compounds were prepared in clear U bottom polypropylene 96 well plates (Falcon #35-1190 with consecutive two fold dilutions. 9 uL of these dilutions was added into each well of the cell plates. The final concentration of DMSO in all wells was 0.15%. Cells were incubated at 37° C., 5% CO2 for 72 h. Following 72 h of incubation with compounds each plate was developed and read. CellTiter-Glo reagent was added to assay plates using a volume equivalent to the cell culture volume in the wells. Plates were shaken for approximately 2 min and incubated at rt for approximately 15 min and the chemiluminescent signal was read on the Victor V or Envison 2100 reader. […] Concentration of compound that inhibited 50% of cell growth (IC50) was analyzed by 4 or 6 parameter fit of data using XLfit, value of no cell addition was substracted from all samples for background.

A further assay addresses T1, PLK1 kinase domain (Homo sapiens, UniProt P53350).
T1 construct: made in house; host or cells: baculovirus infected T. ni cells
Nature of the assay: Assay for Inhibition of PLK1 (SPA, 33P-ATP). The class given is biochemical. The conditions noted are these: 2 nM PLK1 kinase domain, 1 μM ATP, 22° C.; read-out: PLK1 pIC50 (converted). Here is the method: A. Preparation of 6× N-Terminal His-Tagged PLK Kinase Domain
All procedures were performed at 4° C. Cells were lysed in 50 mM HEPES, 200 mM NaCl, 50 mM imidazole, 5% glycerol; pH 7.5. The homogenate was centrifuged at 14K rpm in a SLA-1500 rotor for 1 hr and the supernatant filtered through a 1.2 micron filter. The supernatant was loaded onto a Nickel chelating Sepharose (Amersham Pharmacia) column and washed with lysis buffer. Protein was eluted using 20%, 30% and 100% buffer B steps where buffer B was 50 mM HEPES, 200 mM NaCl, 300 mM imidazole, 5% glycerol; pH 7.5. Fractions containing PLK were determined by SDS-PAGE. Fractions containing PLK were diluted five-fold with 50 mM HEPES, 1 mM DTT, 5% glycerol; pH 7.5, then loaded on an SP Sepharose (Amersham Pharmacia) column. After washing the column with 50 mM HEPES, 1 mM DTT, 5% glycerol; pH 7.5, PLK was step eluted with 50 mM HEPES, 1 mM DTT, 500 mM NaCl; 5% glycerol; pH 7.5. PLK was concentrated using a 10 kDa molecular weight cutoff membrane and then loaded onto a Superdex 200 gel filtration (Amersham Pharmacia) column equilibrated in 25 mM HEPES, 1 mM DTT, 500 mM NaCl, 5% glycerol; pH 7.5. Fractions containing PLK were determined by SDS-PAGE. PLK was pooled, aliquoted and stored at −80° C. Samples were quality controlled using mass spectrometry, N-terminal sequencing and amino acid analysis.
B. Enzyme Activity +/− Inhibitors was Determined as Follows:
All measurements were obtained under conditions where signal production increased linearly with time and enzyme. Test compounds were added to white 384-well assay plates (0.1 μL for 10 μL and some 20 μL assays, 1 μL for some 20 μL assays) at variable known concentrations in 100% DMSO. DMSO (1-5% final, as appropriate) and EDTA (65 mM in reaction) were used as controls.
Reaction Mix (10 or 20 μL) was quickly added to each well immediately following addition of enzyme via automated liquid handlers and incubated 1-1.5 h at 22° C. The 20 μL enzymatic reactions were stopped with 50 μL of stop mix (50 mM EDTA, 4.0 mg/mL Streptavidin SPA beads in Standard Dulbecco's PBS (without Mg^2+ and Ca^2+), 50 μM ATP) per well. The 10 μL reactions were stopped with 10 μL of stop mix (50 mM EDTA, 3.0 mg/mL Streptavidin-coupled SPA Imaging Beads (“LeadSeeker”) in Standard Dulbecco's PBS (without Mg^2+ and Ca^2+), 50 μM ATP) per well. Plates were sealed with clear plastic seals, spun at 500×g for 1 min or settled overnight, and counted in Packard TopCount for 30 seconds/well (regular SPA) or imaged using a Viewlux imager (LeadSeeker SPA). Signal above background (EDTA controls) was converted to percent inhibition relative to that obtained in control (DMSO-only) wells.

Each structure is given as a SMILES string.

T1 sequence (P53350 21-346): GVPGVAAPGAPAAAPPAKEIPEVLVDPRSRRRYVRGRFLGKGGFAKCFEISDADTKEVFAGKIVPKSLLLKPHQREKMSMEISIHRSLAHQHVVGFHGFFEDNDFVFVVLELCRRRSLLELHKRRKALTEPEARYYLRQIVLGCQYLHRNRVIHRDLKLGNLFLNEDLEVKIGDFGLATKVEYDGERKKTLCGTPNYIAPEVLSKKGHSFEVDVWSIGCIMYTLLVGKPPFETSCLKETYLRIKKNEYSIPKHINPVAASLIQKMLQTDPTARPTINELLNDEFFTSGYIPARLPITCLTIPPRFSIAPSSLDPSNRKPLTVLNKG

`C[C@@H](Oc1cc(-n2cnc3cc(-c4ccnc(NCCN(C)C)n4)ccc32)sc1C(N)=O)c1ccccc1C(F)(F)F` [Example 16, 5-[5-(2-{[2-(Dimethylamino)ethyl]amino}pyrimidin-4-yl)-1H-benzimidazol-1-yl]-3-({(1R)-1-[2-(trifluoromethyl)phenyl]ethyl}oxy)thiophene-2-carboxamide]: the figures for the IC50 (in assay [1]; at PLK1 kinase domain) were less than 500 nM and less than 100 nM, respectively.

In the case of `C[C@@H](Oc1cc(-n2cnc3cc(-c4ccnc(NCCCN5CCN(C)CC5)n4)ccc32)sc1C(N)=O)c1ccccc1Cl` [Example 17, 3-{[(1R)-1-(2-chlorophenyl)ethyl]oxy}-5-[5-(2-{[3-(4-methyl-1-piperazinyl)propyl]amino}-4-pyrimidinyl)-1H-benzimidazol-1-yl]-2-thiophenecarboxamide], the IC50 in assay [1] was less than 500 nM; on PLK1 kinase domain it was less than 100 nM.

`C[C@@H](Oc1cc(-n2cnc3cc(-c4cnc(NCCCN(C)C)nc4)ccc32)sc1C(N)=O)c1ccccc1Cl` [Example 18, 3-{[(1R)-1-(2-Chlorophenyl)ethyl]oxy}-5-[5-(2-{[3-(dimethylamino)propyl]amino}-5-pyrimidinyl)-1H-benzimidazol-1-yl]-2-thiophenecarboxamide]: the values for the IC50 (in assay [1]; at PLK1 kinase domain) were less than 500 nM and less than 100 nM, respectively.

Regarding `C[C@@H](Oc1cc(-n2cnc3cc(-c4cnc(NCCN(C)C)nc4)ccc32)sc1C(N)=O)c1ccccc1Cl` [Example 19, 3-{[(1R)-1-(2-Chlorophenyl)ethyl]oxy}-5-[5-(2-{[2-(dimethylamino)ethyl]amino}-5-pyrimidinyl)-1H-benzimidazol-1-yl]-2-thiophenecarboxamide], the values for the IC50 (in assay [1]; at PLK1 kinase domain) were less than 500 nM and less than 100 nM, respectively.

On to `C[C@@H](Oc1cc(-n2cnc3cc(-c4cnc(NCCCN5CCN(C)CC5)nc4)ccc32)sc1C(N)=O)c1ccccc1Cl` [Example 20, 3-{[(1R)-1-(2-Chlorophenyl)ethyl]oxy}-5-[5-(2-{[3-(4-methyl-1-piperazinyl)propyl]amino}-5-pyrimidinyl)-1H-benzimidazol-1-yl]-2-thiophenecarboxamide], for which the figures for the IC50 (in assay [1]; on PLK1 kinase domain) were less than 500 nM and less than 100 nM, respectively.

Regarding `C[C@@H](Oc1cc(-n2cnc3cc(-c4cnc(N(C)CCN(C)C)nc4)ccc32)sc1C(N)=O)c1ccccc1Cl` [Example 21, 3-{[(1R)-1-(2-chlorophenyl)ethyl]oxy}-5-(5-{2-[[2-(dimethylamino)ethyl](methyl)amino]-5-pyrimidinyl}-1H-benzimidazol-1-yl)-2-thiophenecarboxamide], the IC50 in assay [1] was less than 500 nM; on PLK1 kinase domain, less than 100 nM.

Turning to `C[C@@H](Oc1cc(-n2cnc3cc(-c4cnc(NCCN5CCOCC5)nc4)ccc32)sc1C(N)=O)c1ccccc1Cl` [Example 22, 3-{[(1R)-1-(2-chlorophenyl)ethyl]oxy}-5-[5-(2-{[2-(4-morpholinyl)ethyl]amino}-5-pyrimidinyl)-1H-benzimidazol-1-yl]-2-thiophenecarboxamide], the IC50 was less than 500 nM in assay [1] and less than 100 nM on PLK1 kinase domain.

For the compound `C[C@@H](Oc1cc(-n2cnc3cc(-c4cccc(OCCN5CCCC5)c4)ccc32)sc1C(N)=O)c1ccccc1Cl` [Example 23, 3-{[(1R)-1-(2-chlorophenyl)ethyl]oxy}-5-[5-(3-{[2-(1-Pyrrolidinyl)ethyl]oxy}phenyl)-1H-benzimidazol-1-yl]-2-thiophenecarboxamide], the results for the IC50 (in assay [1]; at PLK1 kinase domain) were less than 500 nM and less than 100 nM, respectively.

Turning to `C[C@@H](Oc1cc(-n2cnc3cc(-c4ccc(NC(=O)CN5CCOCC5)cc4)ccc32)sc1C(N)=O)c1ccccc1Cl` [Example 24, 3-{[(1R)-1-(2-chlorophenyl)ethyl]oxy}-5-(5-[4-[(4-morpholinylacetyl)amino]phenyl]-1H-benzimidazol-1-yl)-2-thiophenecarboxamide], the IC50 is less than 500 nM in assay [1] and less than 100 nM on PLK1 kinase domain.

For `C[C@@H](Oc1cc(-n2cnc3cc(-c4ccc(NCCN(C)C)nc4)ccc32)sc1C(N)=O)c1ccccc1C(F)(F)F` [Example 25, 5-[5-(6-{[2-(dimethylamino)ethyl]amino}-3-pyridinyl)-1H-benzimidazol-1-yl]-3-({(1R)-1-[2-(trifluoromethyl)phenyl]ethyl}oxy)-2-thiophenecarboxamide], the IC50 in assay [1] is less than 500 nM; at PLK1 kinase domain it was less than 100 nM.

On to `CNCCNc1ccc(-c2ccc3c(c2)ncn3-c2cc(O[C@H](C)c3ccccc3C(F)(F)F)c(C(N)=O)s2)cn1` [Example 26, 5-[5-(6-{[2-(methylamino)ethyl]amino}-3-pyridinyl)-1H-benzimidazol-1-yl]-3-({(1R)-1-[2-(trifluoromethyl)phenyl]ethyl}oxy)-2-thiophenecarboxamide], for which the IC50 in assay [1] is less than 500 nM; at PLK1 kinase domain it was less than 100 nM.

With `C[C@@H](Oc1cc(-n2cnc3cc(-c4ccc(N(C)CCN(C)C)nc4)ccc32)sc1C(N)=O)c1ccccc1Cl` [Example 27, 3-{[(1R)-1-(2-chlorophenyl)ethyl]oxy}-5-(5-[6-[[2-(dimethylamino)ethyl](methyl)amino]-3-pyridinyl]-1H-benzimidazol-1-yl)-2-thiophenecarboxamide], the results for the IC50 (in assay [1]; on PLK1 kinase domain) were less than 500 nM and less than 100 nM, respectively.

Regarding `C[C@@H](Oc1cc(-n2cnc3cc(-c4ccc(NCCO)nc4)ccc32)sc1C(N)=O)c1ccccc1Cl` [Example 28, 3-{[(1R)-1-(2-chlorophenyl)ethyl]oxy}-5-(5-[6-[(2-hydroxyethyl)amino]-3-pyridinyl]-1H-benzimidazol-1-yl)-2-thiophenecarboxamide], the IC50 is less than 500 nM in assay [1] and less than 100 nM at PLK1 kinase domain.

For the compound `C[C@@H](Oc1cc(-n2cnc3cc(-c4ccc(NCCCN(C)C)nc4)ccc32)sc1C(N)=O)c1ccccc1Cl` [Example 29, 3-{[(1R)-1-(2-chlorophenyl)ethyl]oxy}-5-[5-(6-{[3-(dimethylamino)propyl]amino}-3-pyridinyl)-1H-benzimidazol-1-yl]-2-thiophenecarboxamide], the IC50 in assay [1] is less than 500 nM; on PLK1 kinase domain, less than 100 nM.

As for `C[C@@H](Oc1cc(-n2cnc3cc(-c4ccc(NCCN(C)C)nc4)ccc32)sc1C(N)=O)c1ccccc1Cl` [Example 30, 3-{[(1R)-1-(2-chlorophenyl)ethyl]oxy}-5-[5-(6-{[2-(dimethylamino)ethyl]amino}-3-pyridinyl)-1H-benzimidazol-1-yl]-2-thiophenecarboxamide], the IC50 is less than 500 nM in assay [1] and less than 100 nM at PLK1 kinase domain.
